Assay results from PMC10145973, “Genomic Insights into Bacterial Resistance to Proline-Rich Antimicrobial Peptide Bac7” (Membranes, 2023).
Converted amounts (≈) assume the structure as drawn. “And” between values parts separate entries of the source, which are not always exact repeats. Equal entries are not always repeated. Where two headings read alike, the source gives them in different places. Marks after values point to notes of the source that are not given here. Where a SMILES comes first, the peptide text is derived from it. Bridges are numbered along the chain shown (N, C = ends). [ ]: non-standard residue; d: D form. The star is where a group is joined. X1 = CC[C@H](C)CCCCC(=O)*; Dab = NCC[C@H](N)C(=O)O

How the values were obtained:
[1] = system: resistant Salmonella enterica strain (pmrB mutations); settings: listed as PmxB; cited from earlier work
E. coli MDR 1057 B3 = settings: 24 h, 37 °C; for Minimum Inhibitory Concentration, B3: Table 2, broth microdilution in MHB (medium ±0.9% NaCl not given), 0.1% BSA, median of at least three independent experiments in triplicate
E. coli MDR 1057 B2 = settings: 24 h, 37 °C; for Minimum Inhibitory Concentration, B2: Table 2, broth microdilution in MHB (medium ±0.9% NaCl not given), 0.1% BSA, median of at least three independent experiments in triplicate
[2] = system: extensively drug-resistant Klebsiella pneumoniae isolate; parameters: method as in PMID 30445429; settings: serially passaged in the presence of the agent; cited from earlier work
E. coli MDR 1057 P1 = settings: Table 2, broth microdilution in MHB (medium ±0.9% NaCl not given), 0.1% BSA, 24 h, 37 °C, median of at least three independent experiments in triplicate
E. coli MDR 1057 WT = settings: 24 h, 37 °C; for Minimum Inhibitory Concentration, WT: Table 2, broth microdilution in MHB (medium ±0.9% NaCl not given), 10^6 CFU/mL suspension, agents diluted in 0.1% BSA, visible turbidity, median of at least three independent experiments in triplicate
[3] = system: septic shock-modelled rats; parameters: method as in PMID 12785015; settings: comparable with polymyxin B; cited from earlier work
M. tuberculosis H37Rv = settings: cited from earlier work
Mycobacterium phlei = system: Mycobacterium phlei; parameters: method as in PMID 35629841; settings: cited from earlier work
[4] = system: Mycobacterium smegmatis mc(2)155; test: MIC against Mycobacterium smegmatis (unpublished data); type: cell-based; settings: authors' unpublished data
[5] = system: E. coli BW25113 ΔwaaP (pBAD-WaaP^N159H); settings: complementation in BW25113 ΔwaaP, 0.1 g/L arabinose
[6] = system: E. coli BW25113 ΔsbmA (sbmA::kan, JW0368); test: MIC, broth microdilution, sbmA knockout; type: cell-based, Escherichia coli; settings: Fig. 3C, 24 h, 37 °C
E. coli BW25113 WT = test: MIC, broth microdilution, BW25113; type: cell-based, Escherichia coli; settings: 24 h, 37 °C
E. coli MDR 1057 B1 = settings: Fig. 3C, 24 h, 37 °C
[7] = system: E. coli BW25113 ΔwaaP (waaP::kan, JW3605); test: MIC, broth microdilution, waaP knockout; type: cell-based, Escherichia coli; settings: 24 h, 37 °C
[8] = Fig. 3C and text, MHB +0.9% NaCl
[9] = selection in MHB without 0.9% NaCl

CC[C@H](C)CCCCC(=O)N[C@@H](CCN)C(=O)N[C@H](C(=O)N[C@@H](CCN)C(=O)N[C@H]1CCNC(=O)[C@H]([C@@H](C)O)NC(=O)[C@H](CCN)NC(=O)[C@H](CCN)NC(=O)[C@H](CC(C)C)NC(=O)[C@@H](Cc2ccccc2)NC(=O)[C@H](CCN)NC1=O)[C@@H](C)O [Polymyxin B] (X1-[Dab]T[Dab][Dab][Dab][dF]L[Dab][Dab]T; lactam 4-C (inferred); N-terminus assumed)
MIC after a single pmrB mutation [1]: up to 3 µg/mL and ≤ 4 µM | Minimum Inhibitory Concentration, B3 (E. coli MDR 1057 B3): 8 µM | Minimum Inhibitory Concentration, B2 (E. coli MDR 1057 B2): 0.125 µM | increase in MIC after serial passage [2]: ≥ 1000 fold | Minimum Inhibitory Concentration, P1 (E. coli MDR 1057 P1; listed as PmxB): > 128 µM | Minimum Inhibitory Concentration, WT (E. coli MDR 1057 WT): 0.125 µM | final MIC relative to initial MIC, the P2 strain (E. coli MDR 1057 strain; PmxB selection): 32 × MIC | final MIC relative to initial MIC, the P1 strain (E. coli MDR 1057 strain; PmxB selection, MHB + 0.9% NaCl, 25 passages): 2048 × MIC | final MIC value, the P1 strain (E. coli MDR 1057 strain; PmxB selection, MHB + 0.9% NaCl, 25 passages, then three passages on drug-free agar): 128 µM | final MIC value, the P2 strain (E. coli MDR 1057 strain; PmxB selection, after final passage and three passages on drug-free agar): 2 µM | MIC at start of the selection experiment (E. coli MDR 1057 strain; both repetitions (P1 and P2), before selection): 0.0625 µM

Bac7_1-35: Bac7 fragment 1-35 (RRIRPRPPRLPRPRPRPLPFPRPGPRPIPRPLPFP; Bactenecin-7; UniProt P19661 131-165, looked up, fragment)
plasma LPS levels and lethality rates [3]: significant decrease

PR-39
concentration inhibiting growth (M. tuberculosis H37Rv): about 10 µM

CC[C@H](C)[C@H](NC(=O)[C@H](CCCNC(=N)N)NC(=O)[C@@H](N)CCCNC(=N)N)C(=O)N[C@@H](CCCNC(=N)N)C(=O)N[C@@H](CCCNC(=N)N)C(=O)N1CCC[C@H]1C(=O)N[C@@H](CCCNC(=N)N)C(=O)N[C@@H](CC(C)C)C(=O)N1CCC[C@H]1C(=O)N[C@@H](CCCNC(=N)N)C(=O)N1CCC[C@H]1C(=O)N[C@@H](CCCNC(=N)N)C(=O)N[C@H](C(=O)N1CCC[C@H]1C(=O)N[C@@H](CCCNC(=N)N)C(=O)N1CCC[C@H]1C(=O)N[C@@H](CCCNC(=N)N)C(=O)N[C@H](C(=O)N1CCC[C@H]1C(=O)N1CCC[C@H]1C(=O)N[C@@H](CCCNC(=N)N)C(=O)N[C@H](C(=O)N1CCC[C@H]1C(=O)N[C@@H](CCCNC(=N)N)C(=O)N1CCC[C@H]1C(=O)N[C@H](C(=O)N[C@@H](CC(C)C)C(=O)N1CCC[C@H]1C(=O)N1CCC[C@H]1C(=O)N1CCC[C@H]1C(=O)N[C@@H](CCCNC(=N)N)C(=O)N[C@H](C(=O)N1CCC[C@H]1C(=O)N[C@@H](Cc1ccccc1)C(=O)N1CCC[C@H]1C(=O)N[C@@H](CCCNC(=N)N)C(=O)N[C@@H](Cc1ccccc1)C(=O)N1CCC[C@H]1C(=O)N[C@@H](CCCNC(=N)N)C(N)=O)C(C)C)C(C)C)[C@@H](C)CC)[C@@H](C)CC)C(C)C [VicBac] (H-RRIRRPRLPRPRVPRPRIPPRIPRPVLPPPRVPFPRFPR-NH2; N-terminus assumed)
Minimum Inhibitory Concentration, B3 (E. coli MDR 1057 B3): 2 µM | Minimum Inhibitory Concentration, B2 (E. coli MDR 1057 B2): 2 µM | MIC (Mycobacterium phlei): 0.5 to 1 µM | MIC [4]: 0.5 to 1 µM | Minimum Inhibitory Concentration, P1 (E. coli MDR 1057 P1): 4 µM | Minimum Inhibitory Concentration, WT (E. coli MDR 1057 WT): 1 µM

CC[C@H](C)[C@H](NC(=O)[C@H](CCCNC(=N)N)NC(=O)[C@@H](N)CCCNC(=N)N)C(=O)N[C@@H](CCCNC(=N)N)C(=O)N1CCC[C@H]1C(=O)N[C@@H](CCCNC(=N)N)C(=O)N1CCC[C@H]1C(=O)N1CCC[C@H]1C(=O)N[C@@H](CCCNC(=N)N)C(=O)N[C@@H](CC(C)C)C(=O)N1CCC[C@H]1C(=O)N[C@@H](CCCNC(=N)N)C(=O)N1CCC[C@H]1C(=O)N[C@@H](CCCNC(=N)N)C(=O)N1CCC[C@H]1C(=O)N[C@@H](CCCNC(=N)N)C(=O)N1CCC[C@H]1C(=O)N[C@@H](CC(C)C)C(=O)N1CCC[C@H]1C(=O)N[C@@H](Cc1ccccc1)C(=O)N1CCC[C@H]1C(=O)N[C@@H](CCCNC(=N)N)C(=O)O [Bac7_1-22] (H-RRIRPRPPRLPRPRPRPLPFPR-OH)
MIC, MHB +0.9% NaCl (E. coli MDR 1057 B3; Fig. 3C and text, MDR 1057 B3, MHB +0.9% NaCl): 32−64 μM | MIC, MHB (E. coli MDR 1057 B3; Fig. 3C and text, MDR 1057 B3, salt-free MHB): 32 µM | Minimum Inhibitory Concentration, B3 (E. coli MDR 1057 B3): >32 µM | MIC, MHB +0.9% NaCl (E. coli MDR 1057 B2; Fig. 3C, MDR 1057 B2, MHB +0.9% NaCl): 32 µM (≈ 89.1 µg/mL) | MIC, MHB (E. coli MDR 1057 B2; Fig. 3C, MDR 1057 B2, salt-free MHB): 1 µM | Minimum Inhibitory Concentration, B2 (E. coli MDR 1057 B2): >32 µM | increase in MICs for the strain expressing waaP^N159H as compared with the wild-type variant [5]: 4–8 fold | Minimum Inhibitory Concentration, P1 (E. coli MDR 1057 P1): 16 * µM | MIC, MHB +0.9% NaCl ([6]; MHB +0.9% NaCl): 16 µM (≈ 44.6 µg/mL) | MIC, MHB ([6]; salt-free MHB): 1 µM | MIC, MHB +0.9% NaCl (E. coli BW25113 WT; [8]): 1 µM (≈ 2.78 µg/mL) | MIC, MHB (E. coli BW25113 WT; Fig. 3C, salt-free MHB): 2 µM | MIC, MHB +0.9% NaCl (E. coli MDR 1057 WT; Fig. 3C, MDR 1057 WT, MHB +0.9% NaCl, median of ≥3 experiments): 2 µM (≈ 5.57 µg/mL) | MIC, MHB (E. coli MDR 1057 WT; Fig. 3C, MDR 1057 WT, salt-free MHB, median of ≥3 experiments): 1−2 μM | increases in MIC values after initial 3-4 passages (E. coli MDR 1057 strain; selection in MHB + 0.9% NaCl, strains B1 and B2): ≥ 32 fold | increase in MICs after 4 weeks of selection, strain B3 (E. coli MDR 1057 strain; [9]): 32 fold | increase in MICs after 4 weeks of selection, strain B4 (E. coli MDR 1057 strain; [9]): 4 fold | increase in minimal inhibitory concentrations (MICs), three resistant strains (E. coli MDR 1057 strain; serial passaging, four-week experimental evolution (abstract)): ≥ 16 fold | MIC, MHB +0.9% NaCl (E. coli MDR 1057 B1; MHB +0.9% NaCl): 32 µM (≈ 89.1 µg/mL) | MIC, MHB (E. coli MDR 1057 B1; salt-free MHB): 1 µM | MIC, MHB +0.9% NaCl [7, 8]: 1 µM (≈ 2.78 µg/mL) | MIC, MHB ([7]; Fig. 3C, salt-free MHB): 2 µM
